Tests used:
Conditions in all cases: 48 h
SEM cells [1] = assay: AUC of viability dose-response curve (% viability x log10 dose units); higher = less sensitive
Method in brief: (§1)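 Leukemia cells adapted to each medium (500 or 1000 cells/well, 1536-well plates) were exposed to library compounds in DMSO for 48 h at 37°C at 11 threefold doses, 47 μM to 0.79 nM. Luminescence by CellTiter-Glo One was normalised per plate to DMSO and cell-free wells, then fitted with a four-parameter log-logistic curve on log10 dose. Curves above full viability were scaled and quality-control failures removed before area under the curve was integrated by trapezoidal rule.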

NOMO1 [2] = assay: as above
Method in brief: as §1

P12-Ichikawa [3] = assay: as above
Method in brief: as §1

SEM cells [4] = assay: cell viability relative to DMSO control; higher = less cytotoxic
Method in brief: (§2)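 Before seeding, each leukemia line was adapted for at least four passages in each medium. NOMO1 or SEM cells (500 cells/well) and P12-Ichikawa cells (1000 cells/well) went into 1536-well plates at 5 μl, then received library compounds in DMSO by pin dosing across 11 threefold concentrations, 47 μM to 0.79 nM. Readout was CellTiter-Glo One luminescence after 48 h at 37°C, and viability is given as a per-plate percentage of DMSO wells, with cell-free wells as background.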

NOMO1 [5] = assay: as above
Method in brief: as §2

P12-Ichikawa [6] = assay: as above
Method in brief: as §2

CC(C)(C)NC(=O)Nc1cccc(Nc2ncc(F)c(NC(C)(C)CO)n2)c1
AUC of viability dose-response curve
Conditions	NOMO1 [2]	P12-Ichikawa [3]	SEM cells [1]
HPLM + 10% dialyzed FBS	477	415	415
RPMI 5 mM glucose + 10% FBS	450	425	396
RPMI 5 mM glucose + 10% dialyzed FBS	459	429	397

cell viability [%]
Conditions	NOMO1 [5]	P12-Ichikawa [6]	SEM cells [4]
HPLM + 10% dialyzed FBS, 0.000781 µM	99.9	105	101
HPLM + 10% dialyzed FBS, 0.00234 µM	115	110	99.9
HPLM + 10% dialyzed FBS, 0.00702 µM	133	112	103
HPLM + 10% dialyzed FBS, 0.0211 µM	140	114	104
HPLM + 10% dialyzed FBS, 0.0632 µM	112	118	109
HPLM + 10% dialyzed FBS, 0.19 µM	137	121	102
HPLM + 10% dialyzed FBS, 0.569 µM	122	117	99.8
HPLM + 10% dialyzed FBS, 1.71 µM	130	120	101
HPLM + 10% dialyzed FBS, 5.12 µM	127	108	77.1
HPLM + 10% dialyzed FBS, 15.4 µM	111	14.7	31.5
HPLM + 10% dialyzed FBS, 46.1 µM	108	24.4	29.9
RPMI 5 mM glucose + 10% FBS, 0.000781 µM	123	114	108
RPMI 5 mM glucose + 10% FBS, 0.00234 µM	115	118	103
RPMI 5 mM glucose + 10% FBS, 0.00702 µM	127	124	104
RPMI 5 mM glucose + 10% FBS, 0.0211 µM	112	121	108
RPMI 5 mM glucose + 10% FBS, 0.0632 µM	135	129	115
RPMI 5 mM glucose + 10% FBS, 0.19 µM	112	121	120
RPMI 5 mM glucose + 10% FBS, 0.569 µM	120	122	95.8
RPMI 5 mM glucose + 10% FBS, 1.71 µM	133	132	102
RPMI 5 mM glucose + 10% FBS, 5.12 µM	111	116	69.1
RPMI 5 mM glucose + 10% FBS, 15.4 µM	69.8	35.2	16.4
RPMI 5 mM glucose + 10% FBS, 46.1 µM	98.4	40.4	9.58
RPMI 5 mM glucose + 10% dialyzed FBS, 0.000781 µM	–	120	107
RPMI 5 mM glucose + 10% dialyzed FBS, 0.00234 µM	–	117	118
RPMI 5 mM glucose + 10% dialyzed FBS, 0.00702 µM	–	120	110
RPMI 5 mM glucose + 10% dialyzed FBS, 0.0211 µM	–	116	115
RPMI 5 mM glucose + 10% dialyzed FBS, 0.0632 µM	–	124	115
RPMI 5 mM glucose + 10% dialyzed FBS, 0.19 µM	–	119	120
RPMI 5 mM glucose + 10% dialyzed FBS, 0.569 µM	–	117	111
RPMI 5 mM glucose + 10% dialyzed FBS, 1.71 µM	–	119	103
RPMI 5 mM glucose + 10% dialyzed FBS, 5.12 µM	–	114	71.8
RPMI 5 mM glucose + 10% dialyzed FBS, 15.4 µM	–	34.6	19.9
RPMI 5 mM glucose + 10% dialyzed FBS, 46.1 µM	–	51	16

NNCCc1ccccc1
AUC of viability dose-response curve
Conditions	NOMO1 [2]	P12-Ichikawa [3]	SEM cells [1]
HPLM + 10% dialyzed FBS	433	465	444
RPMI 5 mM glucose + 10% FBS	450	464	466
RPMI 5 mM glucose + 10% dialyzed FBS	467	470	468

cell viability [%]
Conditions	NOMO1 [5]	P12-Ichikawa [6]	SEM cells [4]
HPLM + 10% dialyzed FBS, 0.000781 µM	109	116	–
HPLM + 10% dialyzed FBS, 0.00234 µM	133	123	–
HPLM + 10% dialyzed FBS, 0.00702 µM	119	118	–
HPLM + 10% dialyzed FBS, 0.0211 µM	131	115	–
HPLM + 10% dialyzed FBS, 0.0632 µM	112	118	–
HPLM + 10% dialyzed FBS, 0.19 µM	115	116	–
HPLM + 10% dialyzed FBS, 0.569 µM	108	115	–
HPLM + 10% dialyzed FBS, 1.71 µM	118	113	–
HPLM + 10% dialyzed FBS, 5.12 µM	111	113	–
HPLM + 10% dialyzed FBS, 15.4 µM	60	106	–
HPLM + 10% dialyzed FBS, 46.1 µM	30.4	95.3	–
RPMI 5 mM glucose + 10% FBS, 0.000781 µM	117	120	–
RPMI 5 mM glucose + 10% FBS, 0.00234 µM	132	115	–
RPMI 5 mM glucose + 10% FBS, 0.00702 µM	122	120	–
RPMI 5 mM glucose + 10% FBS, 0.0211 µM	117	117	–
RPMI 5 mM glucose + 10% FBS, 0.0632 µM	124	110	–
RPMI 5 mM glucose + 10% FBS, 0.19 µM	117	119	–
RPMI 5 mM glucose + 10% FBS, 0.569 µM	115	129	–
RPMI 5 mM glucose + 10% FBS, 1.71 µM	114	128	–
RPMI 5 mM glucose + 10% FBS, 5.12 µM	114	109	–
RPMI 5 mM glucose + 10% FBS, 15.4 µM	103	106	–
RPMI 5 mM glucose + 10% FBS, 46.1 µM	21.2	91.9	–
RPMI 5 mM glucose + 10% dialyzed FBS, 0.000781 µM	116	109	102
RPMI 5 mM glucose + 10% dialyzed FBS, 0.00234 µM	116	116	120
RPMI 5 mM glucose + 10% dialyzed FBS, 0.00702 µM	129	116	120
RPMI 5 mM glucose + 10% dialyzed FBS, 0.0211 µM	107	110	127
RPMI 5 mM glucose + 10% dialyzed FBS, 0.0632 µM	125	123	127
RPMI 5 mM glucose + 10% dialyzed FBS, 0.19 µM	121	111	112
RPMI 5 mM glucose + 10% dialyzed FBS, 0.569 µM	122	112	115
RPMI 5 mM glucose + 10% dialyzed FBS, 1.71 µM	109	116	127
RPMI 5 mM glucose + 10% dialyzed FBS, 5.12 µM	109	113	103
RPMI 5 mM glucose + 10% dialyzed FBS, 15.4 µM	114	107	117
RPMI 5 mM glucose + 10% dialyzed FBS, 46.1 µM	75	96.9	75.3

— the supplement of paper PMC11451515
